# Test results as given in US8673929B2, “4,6-di- and 2,4,6-trisubstituted quinazoline derivatives and pharmaceutical compositions useful for treating viral infections” (priority 2006, dated 2014).
# Legend:
# HCV replicon = experiment: Anti-HCV replicon assay, EC50 (luciferase readout); format: cell-based; conditions: Huh-7 HCV replicon cells, 3 days incubation, luciferase luminescence
# Procedure: (§1) The anti HCV activity of the quinazoline derivatives of this invention was tested in a human hepatoma Huh-7 cell line harbouring a HCV replicon. The assay comprised the following steps:
# (§2) Step 1: compound preparation and serial dilution • 1. for water soluble quinazoline derivatives, a volume of 500 μL of solution in cell media (DMEM, 10% FBS, P/S, L-Glutamine) was prepared with a concentration being twice the concentration of the starting final serial dilution concentration. A volume of 150 μL of the solution was added to the pre-specified wells in column 1 of a 96-well cell culture plate (PerkinElmer, white plate, cat. #6005181, for EC50 assay; black plate, cat. #6005182 for CC50 assay). The rest of the plate, columns 2-12, was filled with 100 μL of cell media. The plate was then placed on a Precision 2000 Workstation to start the serial dilution. Compounds were diluted three times each step from column 1 to column 10. Column 11 was used as a blank control (no compound added). • 2. for quinazoline derivatives requiring DMSO to dissolve, serial dilution is performed in 50% DMSO in a 384-well plate. A solution containing a compound at 100-fold concentration of the starting final serial dilution concentration was prepared in 50% DMSO and added to the pre-specified wells in column 1 of a polypropylene 384-well plate. The plate was then placed on a Precision 2000 Workstation to start the serial dilution. After the serial dilution, a volume of 2 μL of the solution was transferred from the 384-well plate to a 96-well cell culture plate containing 100 μL of cell media on a Biomek FX Workstation. The DMSO concentration in the final assay condition was 0.5% after cells are added to the plate and the total volume in each well is brought to 200 μL.
# (§3) Step 2: to each well of the serial dilution plate prepared above, 100 μL of cell media containing 6000 suspended Huh-7 HCV replicon cells was added with a Multidrop workstation. The plates were incubated for 3 days at 37° C. with 5% CO2.
# (§4) Step 3: detection: • a) for the EC50 assay, the media in a 96-well cell culture plate was aspirated with a Biotek EL405 plate-washer. A volume of 200 μL of a solution containing a 1:1 mixture of cell-lysis buffer (Promega, Luciferase Cell Culture Lysis 5× Reagent, cat. #E1531) and luciferase substrate solution (Promega, Luciferase Assay, cat.# E4550) was added to each well of the plate with Multidrop. The plate was incubated for 30 minutes at room temperature before the luminescence signal was measured with a TopCount plate-reader. • b) for the CC50 assay, a volume of 100 μL of pre-mixed CellTiter-Glo (Promega, cat.# G7572) solution is added directly to the cell culture in each well of the plate and the luminescence signal is measured with a TopCount plate-reader after 10 minutes of incubation at room temperature.
# (§5) Results in the table below are expressed by the following data: • the 50% cytostatic concentration (CC50), i.e. the concentration that results in 50% inhibition of cell growth, and • the 50% effective concentration (EC50), i.e. the concentration that […].
# [1] = CC50 assay in the anti-HCV replicon assay (CellTiter-Glo); format: cell-based, human; conditions: human, Huh-7 hepatoma cells harbouring an HCV replicon; Huh-7 HCV replicon cells, 3 days incubation, CellTiter-Glo luminescence
# Procedure: as §1, §2, §3, §4, §5
Molecule,EC50 (HCV replicon) [µM],"EC50 (HCV replicon; Hepatitis C virus, 72 h) [µM]",CC50 at 3 days [1] [µM]
4-(4-(2-methmethoxy)-quinazolin-6-yl)-N-methyl-benzamide [Example 246],1 to 10,,
"COc1ccc(-c2ccc3nc(N)nc(OC(C)C)c3c2)cc1OC [Example 18, 2-amino-6-(3,4-dimethoxyphenyl)-4-isopropoxy-quinazoline]",,< 0.3,< 10
"CCOc1nc(N)nc2ccc(-c3ccc(F)cc3)cc12 [Example 19, 2-amino-4-ethoxy-6-(4-fluorophenyl)-quinazoline]",,1 to 10,> 20
"COCCOc1nc(N)nc2ccc(-c3ccc(F)cc3)cc12 [Example 20, 2-amino-6-(4-fluorophenyl)-4-(2-methoxyethoxy)-quinazoline]",,1 to 10,10 to 20
"CC(C)Oc1nc(N)nc2ccc(-c3ccc(F)cc3)cc12 [Example 21, 2-amino-6-(4-fluorophenyl)-4-isopropoxy-quinazoline]",,1 to 10,> 20
"Nc1nc(OCC(F)(F)F)c2cc(-c3ccc(F)cc3)ccc2n1 [Example 26, 2-amino-6-(4-fluorophenyl)-4-(2,2,2-trifluoroethoxy)-quinazoline]",,1 to 10,10 to 20
"CC(=O)Nc1ccc(-c2ccc3nc(N)nc(OC(C)C)c3c2)cc1 [Example 27, 2-amino-6-(4-acetamidophenyl)-4-isopropoxy-quinazoline]",,0.3 to 1,> 20
"COCCOc1nc(N)nc2ccc(-c3ccc(NC(C)=O)cc3)cc12 [Example 28, 2-amino-6-(4-acetamidophenyl)-4-(2-methoxyethoxy)-quinazoline]",,0.3 to 1,10 to 20
"CC(=O)Nc1ccc(-c2ccc3nc(N)nc(OCCN4CCOCC4)c3c2)cc1 [Example 29, 2-amino-6-(4-acetamidophenyl)-4-[2-(4-morpholinyl)ethoxy]-quinazoline]",,0.3 to 1,> 20
"CCOc1nc(N)nc2ccc(-c3ccc(NC(C)=O)cc3)cc12 [Example 30, 2-amino-6-(4-acetamidophenyl)-4-ethoxy-quinazoline]",,0.3 to 1,> 20
"CC(=O)Nc1ccc(-c2ccc3nc(N)nc(OCC4CC4)c3c2)cc1 [Example 31, 2-amino-6-(4-acetamidophenyl)-4-(cyclopropyl-methoxy)-quinazoline]",,0.3 to 1,> 20
"CC(=O)Nc1ccc(-c2ccc3nc(N)nc(OCC(F)(F)F)c3c2)cc1 [Example 32, 2-amino-6-(4-acetamidophenyl)-4-(2,2,2-trifluoroethoxy)-quinazoline]",,0.3 to 1,> 20
"CCOc1ncnc2ccc(-c3ccc(F)cc3)cc12 [Example 34, 4-ethoxy-6-(4-fluorophenyl)-quinazoline]",,0.3 to 1,> 20
"COCCOc1ncnc2ccc(-c3ccc(F)cc3)cc12 [Example 35, 4-(2-methoxyethoxy)-6-(4-fluorophenyl)-quinazoline]",,1 to 10,> 20
CCOc1nc(N)nc2ccc(-c3cccc(F)c3F)cc12 [Example 38],,1 to 10,10 to 20
"CCOc1nc(N)nc2ccc(-c3ccc(C)cc3)cc12 [Example 39, 4-Ethoxy-6-p-tolyl-quinazolin-2-ylamine]",,1 to 10,> 20
"CCOc1nc(N)nc2ccc(-c3ccoc3)cc12 [Example 40, 4-Ethoxy-6-furan-3-yl-quinazolin-2-ylamine]",,1 to 10,> 20
"CCOc1nc(N)nc2ccc(-c3ccn[nH]3)cc12 [Example 41, 4-Ethoxy-6-(2H-pyrazol-3-yl)-quinazolin-2-ylamine]",,1 to 10,> 20
"CCOc1nc(N)nc2ccc(-c3cccs3)cc12 [Example 42, 4-Ethoxy-6-thiophen-2-yl-quinazolin-2-ylamine]",,1 to 10,< 10

Molecule,EC50 (HCV replicon) [µM],"EC50 (HCV replicon; Hepatitis C virus, 72 h) [µM]",CC50 at 3 days [1] [µM]
"CCOc1nc(N)nc2ccc(-c3ccc(C(=O)NC)cc3)cc12 [Example 43, 4-(2-Amino-4-ethoxy-quinazolin-6-yl)-N-methyl-benzamide]",,< 0.3,> 20
"CCOc1nc(N)nc2ccc(-c3ccco3)cc12 [Example 44, 4-Ethoxy-6-furan-2-yl-quinazolin-2-ylamine]",,1 to 10,> 20
"CCOc1nc(N)nc2ccc(-c3ccsc3)cc12 [Example 45, 4-Ethoxy-6-thiophen-3-yl-quinazolin-2-ylamine]",,1 to 10,> 20
"CCOc1nc(N)nc2ccc(-c3ccc(F)c(F)c3)cc12 [Example 46, 6-(3,4-Difluoro-phenyl)-4-ethoxy-quinazolin-2-ylamine]",,1 to 10,> 20
"CCOc1nc(N)nc2ccc(-c3cccc(C#N)c3)cc12 [Example 47, 3-(2-Amino-4-ethoxy-quinazolin-6-yl)-benzonitrile]",,1 to 10,> 20
"CCOc1nc(N)nc2ccc(-c3cn[nH]c3)cc12 [Example 48, 4-Ethoxy-6-(2H-pyrazol-4-yl)-quinazolin-2-ylamine]",,0.3 to 1,> 20
"CCOc1nc(N)nc2ccc(-c3ccc(N)cc3)cc12 [Example 49, 6-(4-Amino-phenyl)-4-ethoxy-quinazolin-2-ylamine]",,1 to 10,> 20
"CCOc1nc(N)nc2ccc(-c3ccc(F)c(F)c3F)cc12 [Example 50, 4-Ethoxy-6-(2,3,4-trifluoro-phenyl)-quinazolin-2-ylamine]",,1 to 10,10 to 20
"CCOc1nc(N)nc2ccc(-c3ccc(O)cc3)cc12 [Example 51, 4-(2-Amino-4-ethoxy-quinazolin-6-yl)-phenol]",,0.3 to 1,10 to 20
"COCCOc1nc(N)nc2ccc(-c3cccc(F)c3F)cc12 [Example 52, 6-(2,3-Difluoro-phenyl)-4-(2-methoxy-ethoxy)-quinazolin-2-ylamine]",,1 to 10,10 to 20
"COCCOc1nc(N)nc2ccc(-c3ccccc3C(F)(F)F)cc12 [Example 53, 4-(2-Methoxy-ethoxy)-6-(2-trifluoromethyl-phenyl)-quinazolin-2-ylamine]",,1 to 10,< 10
"COCCOc1nc(N)nc2ccc(-c3ccc(Cl)s3)cc12 [Example 54, 6-(5-Chloro-thiophen-2-yl)-4-(2-methoxy-ethoxy)-quinazolin-2-ylamine]",,1 to 10,> 20
"COCCOc1nc(N)nc2ccc(-c3ccc(C)cc3)cc12 [Example 55, 4-(2-Methoxy-ethoxy)-6-p-tolyl-quinazolin-2-ylamine]",,1 to 10,> 20
"COCCOc1nc(N)nc2ccc(-c3cc4ccccc4s3)cc12 [Example 56, 6-Benzo[b]thiophen-2-yl-4-(2-methoxy-ethoxy)-quinazolin-2-ylamine]",,1 to 10,> 20
"COCCOc1nc(N)nc2ccc(-c3cc4ccccc4o3)cc12 [Example 57, 6-Benzofuran-2-yl-4-(2-methoxy-ethoxy)-quinazolin-2-ylamine]",,1 to 10,10 to 20
"COCCOc1nc(N)nc2ccc(-c3cccs3)cc12 [Example 58, 4-(2-Methoxy-ethoxy)-6-thiophen-2-yl-quinazolin-2-ylamine]",,1 to 10,> 20
"CNC(=O)c1ccc(-c2ccc3nc(N)nc(OCCOC)c3c2)cc1 [Example 59, 4-(2-Amino-4-(2-methoxy-ethoxy)-quinazolin-6-yl)-N-methyl-benzamide]",,1 to 10,> 20
"COCCOc1nc(N)nc2ccc(-c3ccco3)cc12 [Example 60, 4-(2-Methoxy-ethoxy)-6-furan-2-yl-quinazolin-2-ylamine]",,1 to 10,> 20
"COCCOc1nc(N)nc2ccc(-c3ccsc3)cc12 [Example 61, 4-(2-Methoxy-ethoxy)-6-thiophen-3-yl-quinazolin-2-ylamine]",,1 to 10,> 20
